What was measured:
[1] = Stability constants of complexes with zinc ions by pH-metric titration, Bjerrum method; format: physicochemical; details: aqueous solution, CL = 0.02M, M^z+/L = 1:6, ion strength 0.5 (KNO3), 22° C.; for The first stability constant, lgK1 (zinc ions) / The second stability constant, lgK2 (zinc ions) / The third stability constant, lgK3 (zinc ions): Table 5; for The first stability constant of complexes with 1:1 compositions, lgK1, Zn (II): Table 4
Protocol: (§1) Initial 0.05 M solutions of M^z+ metal ions were prepared from nitrates of zinc (Zn(NO3)2·6H2O), calcium (Ca(NO3)2·4H2O), copper sulfate (CuSO4·5H2O), magnesium chloride (MgCl2·6H2O) and Mohr's salt ((NH4)2Fe(SO4)2·6H2O). Standardization of the initial solutions of M^z+ salts was performed by a complexometric titration method with trilon B (M^z+=Zn^2+, Cu^2+, Mg^2+, Ca^2+) and a spectrophotometric method at 490 nm by using o-phenanthroline (M^z+=Fe^2+).
(§2) Given the parameters, such as the amount of a studied compound required for potentiometric titration, a testing procedure and a constant calculation method, the Bjerrum method is most suitable and informative [Yu. P. Galaktionov, M. A. Chistyakov, V. G. Sevastiyanov, etc., “Step Stability Constants of Group IIIB Metal and Lanthanide Complexes with Acetylacetone in Aqueous Solution and the Solubility Products of Metal Triacetylacctonates”, Journal of physical chemistry, 2004, v. 78, No. 9, pp. 1596-1604].
(§3) The method is based on the view that the process of complex formation is stepwise. A main assumption of the Bjerrum method is an assumption about the formation of only […] complexes. The process of complex formation can be schematically described as follows:
(§4) According to the Bjerrum method, a studied compound is titrated with a NaOH solution twice: in the absence of and in the presence of a metal ion. The titration is performed under a high constant concentration of an indifferent electrolyte, which provides the solution with a constant ionic strength.
(§5) For these purposes, highly soluble salts are used, for example, sodium and potassium salts. Concentration step stability constants (Kn) are determined from experiments. In addition, the method provides information concerning the composition of a formed complex, in particular, the maximum possible number of bound ligands (n).
(§6) Traditional procedure for determining step stability constants for complexes by the Bjerrum method of pH-metric titration was performed as follows.
(§7) A sample of a studies compound (3·10^−4 mol) was dissolved in 14.0 ml of a 0.5M aqueous KNO3 solution. One ml of a 0.05M aqueous solution of an M^z+ salt was added under vigorous stirring. The systems were studied with a M^z+/L ratio of 1:6. The pH value of a solution was fixed for coexisting ligands and metal ions. The mixture was titrated with a 0.05M NaOH aqueous solution within a broad range of pH values (up to pH 11.0-11.5). The amount of the used titrant (VNaOH, ml) and the pH value of the solution were registered in each titration point. At the moment when a residue formed, the solution became turbid, or the color of the solution changed, the pH value, the nature of the change and the amount of NaOH spent for the titration were registered. The step of titration was 0.25 ml. The value of lgKn was determined by the Bjerrum curve n=f(pA) for each semi-integer value of the function of complex formation n=n−0.5.
Today the Bjerrum method is frequently used to study complex formation processes. This method provides for the determination of two parameters: the concentration of a free ligand under equilibrium conditions ([L^−]) and the function of complex formation n which is the average number of ligands involved in the complex. Thus, using experimental data, the value [L^−] can be calculated for each time point of the titration (in particular, −lg[L^−]=pA), and n can be calculated by equation (1). When a ligand has several dissociating groups, the KL value in equation (1) matches the value of the dissociation constant with the largest pk value.
The Kn value is found from the Bjerrum curve (curve of the complex formation) n=f(pA) plotted according to equation (2) for each semi-integer value (n=n−0.5) of the function of the complex formation. Thus, the step stability constant will be equal to the reciprocal concentration of a free ligand at a point of n=n−0.5. […]

[2] = Acid dissociation constants (pk) by pH-potentiometric titration, Schwarzenbach method; format: physicochemical; details: aqueous solution, C = 0.02M, ionic strength 0.5 (KNO3), 22° C.; for pk1: titration with 0.05M HCl aqueous solution (footnote 1); for pk2: titration with 0.05M aqueous NaOH solution (footnote 2)
Protocol: An important property of a ligand to form a complex is dissociation constants (pkn) of studied compounds in an aqueous solution. The pkn values are determined by a potentiometric titration method. The calculation of dissociation constants are performed by the Schwarzenbach method [Grinberg A. A., “An introduction to the chemistry of complex compounds”, fourth ed., Amend., L., Khimiya, 1971].
Titration was performed on an apparatus by using a laboratory ionomer I 120.1. A designed galvanic cell consisted of two electrodes, in particular an indicator glass electrode and a silver chloride comparison electrode. The pH value was measured with an accuracy of ±0.2.
A traditional method for determining acid dissociation step constants (k1, . . . , kn) by using pH-metric titration is the Schwarzenbach method.
A sample of a studied compound (3·10^−4 mol) was dissolved in 15.0 ml of a 0.5M aqueous KNO3 solution. The obtained […] solution was titrated with a 0.05M aqueous solution of NaOH or HCl under stirring. The amount (V, ml) of the used titrant and the pH value of the solution were registered in each titration point. A titration step was equal to 0.5 ml, and 0.2 ml in the proximity to the equivalency point. Titration was continued until the pH value of the solution reached 11.0 to 11.5. The pH value of the solution corresponding to a=0.5 and/or a=1.5 was determined by the titration curve pH=f(a), and the amount of added gram-equivalents of the titrant was calculated in terms of 1 mole of a titrated compound.

[3] = Study of the chelating ability (summary statements on complex formation); format: physicochemical; details: statement in words
[4] = First stability constant of complexes with Fe (II) by pH-metric titration, Bjerrum method; format: physicochemical; details: aqueous solution, CL = 0.02M; M^z+/L = 1:6; ion strength 0.5 (KNO3), 22° C.
Protocol: as §1, §2, §3, §4, §5, §6
(§8) A sample of a studies compound (3·10^−4 mol) was dissolved in 14.0 ml of a 0.5M aqueous KNO3 solution. One ml of a 0.05M aqueous solution of an M^z+ salt was added under vigorous stirring. The systems were studied with a M^z+/L ratio of 1:6. The pH value of a solution was fixed for coexisting ligands and metal ions. […] The value of lgKn was determined by the Bjerrum curve n=f(pA) for each semi-integer value of the function of complex formation n=n−0.5.
(§9) Today the Bjerrum method is frequently used to study complex formation processes. […] Thus, using experimental data, the value [L^−] can be calculated for each time point of the titration (in particular, −lg[L^−]=pA), and n can be calculated by equation (1). […]

[5] = First stability constant of complexes with magnesium ions by pH-metric titration, Bjerrum method; format: physicochemical; details: aqueous solution, CL = 0.02M; M^z+/L = 1:6; ion strength 0.5 (KNO3), 22° C.
Protocol: as §1, §2, §3, §4, §5, §6, §8, §9

[6] = First stability constant of complexes with Fe (III) by pH-metric titration, Bjerrum method; format: physicochemical; details: aqueous solution, CL = 0.02M; M^z+/L = 1:6; ion strength 0.5 (KNO3), 22° C.
Source text: as §2, §3, §4, §5, §6, §7, §9

[7] = First stability constant of complexes with copper ions by pH-metric titration, Bjerrum method; format: physicochemical; details: aqueous solution, CL = 0.02M; M^z+/L = 1:6; ion strength 0.5 (KNO3), 22° C.
Protocol: as §1, §2, §3, §4, §5, §6, §8, §9

[8] = First stability constant of complexes with calcium ions by pH-metric titration, Bjerrum method; format: physicochemical; details: aqueous solution, CL = 0.02M; M^z+/L = 1:6; ion strength 0.5 (KNO3), 22° C.
Protocol: as §1, §2, §3
According to the Bjerrum method, a studied compound is titrated with a NaOH solution twice: in the absence of and in the presence of a metal ion. […]
For these purposes, highly soluble salts are used, for example, sodium and potassium salts. Concentration step stability constants (Kn) are determined from experiments. […]
A sample of a studies compound (3·10^−4 mol) was dissolved in 14.0 ml of a 0.5M aqueous KNO3 solution. […] The value of lgKn was determined by the Bjerrum curve n=f(pA) for each semi-integer value of the function of complex formation n=n−0.5.
as §9

Compound	The first stability constant, lgK1 (zinc ions) [1]	The second stability constant, lgK2 (zinc ions) [1]	The third stability constant, lgK3 (zinc ions) [1]	pk1 [2]	pk2 [2]	The first stability constant of complexes with 1:1 compositions, lgK1, Zn (II) [1]	ability to form complexes with or chelate metal ions [3]	The first stability constant of complexes with 1:1 compositions, lgK1, Fe (II) [4]	The first stability constant of complexes with 1:1 compositions, lgK1, Mg (II) [5]	The first stability constant of complexes with 1:1 compositions, lgK1, Fe (III) [6]	The first stability constant of complexes with 1:1 compositions, lgK1, Cu (II) [7]	melting point	The first stability constant of complexes with 1:1 compositions, lgK1, Ca (II) [8]
O=C(CCCC(=O)NCCc1nccs1)NCCc1nccs1 [Compound 8]	6.25	5.80	5.05										
O=C(NCCc1c[nH]cn1)c1cccc(C(=O)NCCc2c[nH]cn2)c1 [Compound 6, Bis-1,3-(N^β-histaminyl)isophthalic acid]	5.62	5.15	4.04										
O=C(CCCC(=O)NCCc1cnc[nH]1)NCCc1cnc[nH]1 [Compound 11, N,N′-bis-[2-(1H-imidazol-4-yl)ethyl]pentanediamide]	5.05	4.70	2.87	7.16^(1)	11.89^(2)	5.05	capable of forming complexes with metal ions	6.27	2.82	6.60	4.39	166 to 168 °C	
O=C(NCCc1cnc[nH]1)C(=O)NCCc1cnc[nH]1 [Compound 1, N,N′-bis-[2-(1H-imidazol-4-yl)ethyl]ethanediamide]	4.52	4.21	3.75										
O=C(CCCCC(=O)NCCc1cnc[nH]1)NCCc1cnc[nH]1 [Compound 12, N,N′-bis-[2-(1H-imidazol-4-yl)ethyl]hexanediamide]	5.46	5.03	3.38	7.13^(1)	11.95^(2)	5.46		6.40	3.72	6.10	4.62	184 to 186 °C	3.60
O=C(CCCC(=O)NCCc1ncc[nH]1)NCCc1ncc[nH]1 [Compound 10]	5.50	5.24	4.48										
O=C(CC(=O)NCCc1cnc[nH]1)NCCc1cnc[nH]1 [Compound 2, N,N′-bis-[2-(1H-imidazol-4-yl)ethyl]propanediamide]	4.84	4.50	2.60	7.11^(1)	11.27^(2)	4.84		5.08	2.59	5.29	4.17		2.06
O=C(CCC(=O)NCCc1cnc[nH]1)NCCc1cnc[nH]1 [Compound 3, N,N′-bis-[2-(1H-imidazol-4-yl)ethyl]butanediamide]	5.40	5.05	3.80	6.88	11.27^(2)	5.40		5.95	4.36	6.59	5.32	230 to 231 °C	4.57
